Marks after values point to notes of the source that are not given here.
Assays:
[1] = test system: male C57bl/6J mice fed very high-fat diet (diet induced diabetes); test: Blood glucose levels in food restricted high-fat-diet (diabetic) C57BL/6J mice after gavage, vehicle 66% LABRASOL; type: in vivo, mouse; settings: for Hypoglycemic activity (in words): 300 mg/kg; for % decrease from 0 h / Blood glucose, 6 hours: 6 hours
Text: The C57B6 mouse strain becomes diabetic when maintained on a high fat diet, it therefore serves as a model for Type 2 diabetes. A screen for treatments effective against diet induced diabetes utilizes male C57BL/6J mice (4-5 week old, 19-20 g) fed a high-fat diet (60% fat in kcal) for 10-16 weeks. This diet induces obesity and diabetes in this mouse strain. Extracts that induce a 20-40% decline in the blood glucose level are used for further testing.
Five-week-old male C57bl/6J mice were purchased from Jackson Labs (Maine) and were acclimatized for 1 week before being randomly assigned into the experimental groups. The animals were housed four to a cage with free access to water in a room with a 12:12 hour light-dark cycle (7:00 AM-7:00 PM), a temperature of 24±1° C., and the animals were weighed weekly. During the acclimatization period, each animal was fed a regular diet ad libitum. At 6-weeks old, the mice were randomly divided into two groups: low fat or very high fat fed groups. The mice continued to receive either a low fat diet (LFD) or very high-fat diet (VHFD) for a 12-week period. The high-fat diet food was purchased from Research Diets Inc., and the nutrition content of very high-fat diet food was similar to that of the low fat diet food except that carbohydrates were lower (70 kcal % vs. 20 kcal %) and the addition of more lard (10 kcal % vs. 60 kcal %) in the diet. Body weights were measured weekly, and at every other week blood was collected for blood glucose analysis. […] Animals fed with LFD were also fasted for 4 hours. […] As a positive control, metformin (Fortamet®, Gluocphase®, Glumetza®, Romet®) was administered instead of plant extract at a dose of 300 mg/kg (MET300). […] Without being limited by theory, metformin may act by increasing insulin sensitivity via increasing the utilization of glucose. The experimental protocols were approved by Rutgers University Institutional Care and Use Committee and followed federal, and state laws.
All treatments were provided by gavage with a vehicle of 66% LABRASOL®, a lipid-based self-emulsifying excipient. Abbreviations for Table 1 are as follows: FC=crude extract, F2=anthocyanin enriched extract, FT=treated extract to promote chalcone formation, metformin is a drug used as a positive control. The results were as follows:
All treatments were provided by gavage with a vehicle of 66% LABRASOL®. Abbreviations for Table 2 are as follows: FC=crude extract, F2=anthocyanin-enriched extract, FT=treated extract to promote chalcone formation, metformin is a drug used as a positive control; *:p<0.05; **:p<0.01; ***:p<0.001 vs 0 hours; c:p<0.05; cc:p<0.01; ccc:p<0.001 vs LABRASOL®. The results were as follows:
All treatments were provided by gavage with a vehicle of 66% LABRASOL®. Abbreviations for Table 3 are as follows: FT=treated extract to promote chalcone formation, F2=anthocyanin enriched extract, MBCE=maqui berry crude extract, MBA=maqui berry anthocyanin-rich extract, metformin is a drug used as a positive control; *:p<0.05; **:p<0.01; ***:p<0.001 vs. 0 hours; c:p<0.05; cc:p<0.01; ccc:p<0.001 vs. LABRASOL®.
The hypoglycemic effects of delphinidin-3-glucoside (Dp 3-glc) and malvidin-3-glucoside (Mv-3-glc) relative to blueberry anthocyanin-enriched extracts and metformin in insulin resistant C57bl/6J mice were investigated. Malvidin glycosides are the predominant anthocyanins of the lowbush blueberry extracts. Delphinidin-3-glucoside likely is a major component of the blueberry extracts. It is reported to be the active hypoglycemic compound from the leaves of Vaccinium species. The animals were maintained on a high fat diet and food restricted 4 hours prior to treatment by gavage. The extracts and metformin were formulated with 66% Labrasol as the delivery vehicle

[2] = test system: food restricted C57B6 mice; test: Blood glucose levels in food restricted C57B6 mice using water as the gavage vehicle; type: in vivo, mouse; settings: Table 5, 300 mg/kg gavage
Experimental: Five-week-old male C57bl/6J mice were purchased from Jackson Labs (Maine) and were acclimatized for 1 week before being randomly assigned into the experimental groups. The animals were housed four to a cage with free access to water in a room with a 12:12 hour light-dark cycle (7:00 AM-7:00 PM), a temperature of 24±1° C., and the animals were weighed weekly. During the acclimatization period, each animal was fed a regular diet ad libitum. At 6-weeks old, the mice were randomly divided into two groups: low fat or very high fat fed groups. The mice continued to receive either a low fat diet (LFD) or very high-fat diet (VHFD) for a 12-week period. The high-fat diet food was purchased from Research Diets Inc., and the nutrition content of very high-fat diet food was similar to that of the low fat diet food except that carbohydrates were lower (70 kcal % vs. 20 kcal %) and the addition of more lard (10 kcal % vs. 60 kcal %) in the diet. Body weights were measured weekly, and at every other week blood was collected for blood glucose analysis. Animals fed with VHFD were fasted for 4 hours and fed orally (gavage) with plant extracts (500 mg/kg) or […] to test efficacy of plant extracts. Animals fed with LFD were also fasted for 4 hours. Blood glucose readings are made 0 hours, 3 hours, and 6 hours after treatment (animals were fasted during the testing period). As a positive control, metformin (Fortamet®, Gluocphase®, Glumetza®, Romet®) was administered instead of plant extract at a dose of 300 mg/kg (MET300). […] Without being limited by theory, metformin may act by increasing insulin sensitivity via increasing the utilization of glucose. The experimental protocols were approved by Rutgers University Institutional Care and Use Committee and followed federal, and state laws.
The MBA was active at both 500 mg/kg and 250 mg/kg. Therefore, the use of Labrasol as a bioenhancing agent dose was not necessary with the MBA. A robust response was seen when Labrasol was not included in the dosing vehicle.

[3] = Example 3, 300 mg/kg by gavage with Labrasol, insulin resistant C57bl/6J mice
[4] = Table 4, insulin resistant C57bl/6J mice, 300 mg/kg gavage in 66% Labrasol
[5] = Table 2, 300 mg/kg gavage in 66% LABRASOL
[6] = Table 3, 250 mg/kg gavage in 66% LABRASOL

OC[C@H]1O[C@@H](Oc2cc3c(O)cc(O)cc3[o+]c2-c2cc(O)c(O)c(O)c2)[C@H](O)[C@@H](O)[C@@H]1O [Dp 3-glc, delphinidin-3-glucoside]
Hypoglycemic activity (in words) [1, 3]: did not significantly show hypoglycemic activity | Hypoglycemic activity (in words) ([1]; Example 3, 300 mg/kg by gavage with Labrasol, insulin resistant C57bl/6J mice, listed as delphinidin-3-O-glucoside): did not have significant hypoglycemic activity | Blood glucose, 0 hours [1, 4]: 214 ± 7.4 | % decrease from 0 h [1, 4]: −17 ± 5.7% | Blood glucose, 6 hours [1, 4]: 186.6 ± 15.5

COc1cc(-c2[o+]c3cc(O)cc(O)c3cc2O[C@@H]2O[C@H](CO)[C@@H](O)[C@H](O)[C@H]2O)cc(OC)c1O [Mv-3-glc, malvidin-3-glucoside]
Lowered blood glucose levels by ([1]; Example 3, 300 mg/kg by gavage with Labrasol): 34% | Hypoglycemic activity (in words) [1, 3]: comparable to the hypoglycemic activity of the phenolics-rich extract at a dose of 500 mg/kg | Hypoglycemic activity (in words) ([1]; Example 3, 300 mg/kg by gavage with Labrasol, insulin resistant C57bl/6J mice, listed as malvidin glucoside): comparable to the metformin positive control at 300 mg/kg | Blood glucose, 0 hours [1, 4]: 204 ± 20.8 | % decrease from 0 h [1, 4]: −31 ± 6.3% | Blood glucose, 6 hours [1, 4]: 134.4 ± 8.3

CN(C)C(=N)N=C(N)N [Metformin, metformin]
Blood glucose, 0 hours ([1]; Table 1, 300 mg/kg gavage in 66% LABRASOL): 226 ± 18 | Blood glucose, 2 hours ([1]; Table 1, 300 mg/kg gavage in 66% LABRASOL, 2 hours): 183 ± 25 | Blood glucose, 4 hours ([1]; Table 1, 300 mg/kg gavage in 66% LABRASOL, 4 hours): 165 ± 29 | % decrease from 0 hours ([1]; Table 1, 300 mg/kg gavage in 66% LABRASOL, last time point 4 hours): −27% | Blood glucose, 0 hours [1, 5]: 207 ± 18 | Blood glucose, 3 hours [1, 5]: 211 ± 15 | Blood glucose, 5 hours ([1]; Table 2, 300 mg/kg gavage in 66% LABRASOL, 5 hours): 128 ± 17**^cc | % decrease from 0 hours ([1]; Table 2, 300 mg/kg gavage in 66% LABRASOL, last time point 5 hours): −38% | Blood glucose, 0 hours [1, 6]: 249 ± 29 | Blood glucose, 3 hours [1, 6]: 273 ± 32 | Blood glucose, 6 hours [1, 6]: 214 ± 39 | % decrease from 0 hours ([1]; Table 3, 250 mg/kg gavage in 66% LABRASOL, last time point 6 hours): −14% | Blood glucose, 0 hours [1, 4]: 206.7 ± 11 | % decrease from 0 h [1, 4]: −49 ± 4.5% | Blood glucose, 6 hours [1, 4]: 108 ± 8.9 | Blood glucose, 0 hours ([2]; 0 hours): 189 ± 11.1 | % decrease from 0 hours ([2]; 6 hours): −43.4 ± 7.8% | Blood glucose, 6 hours ([2]; 6 hours): 106.8 ± 14.2

— patent US20090176718A1, “Berry Preparations For Treatment Of Diabetes And Metabolic Syndrome” (priority 2007, published 2009)
